Changes are numbered by the printed parent chain. “Also recorded” adds a separate entry of the source. Each block holds one compound with its values, some of them ahead of it.
Experiments:
[1] = tested on: WT TK2; settings: reported by Ponomarev et al. 2007; cited from earlier work
[2] = target: T1, thymidine kinase 2 (TK2) (Homo sapiens, UniProt O00142); settings: cited from earlier work
T1 sequence (O00142 34-265): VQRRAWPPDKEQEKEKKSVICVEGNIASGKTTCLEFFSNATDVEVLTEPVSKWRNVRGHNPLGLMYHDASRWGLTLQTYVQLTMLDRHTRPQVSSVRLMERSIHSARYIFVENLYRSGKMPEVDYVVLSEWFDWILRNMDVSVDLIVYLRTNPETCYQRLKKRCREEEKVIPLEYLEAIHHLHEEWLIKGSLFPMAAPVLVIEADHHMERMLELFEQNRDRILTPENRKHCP

[3] = accumulation in liver, small intestine, kidneys, urinary bladder only; cited from earlier work
[4] = Biodistribution of PET reporter probes in mice (microPET/CT); type: in vivo, C57/BL6 mice
Description: To identify candidate PRPs, eight nucleoside analogs (FIG. 7A) were synthesized that were amenable to ^18F labeling (the first criterion for PRPs). To identify PRP candidates with rapid clearance from normal tissues and low overall background (second criterion for PRGs), biodistribution studies in mice were performed. It was observed that natural (D) nucleosides had higher background than non-natural (L) nucleoside analogs. […] The next step was to identify a human nucleoside kinase that phosphorylates L-[^18F]FMAU and L-[^18F]FEAU, and can be converted into a new PRG that matches four criteria:
Initially, a group of nucleoside analogs amenable to fluorine-18 labeling were identified. These PET tracers, 5 of which were novel, were then screened to determine their biodistribution in C57/BL6 mice (n=3 for each PET tracer) through dynamic microPET scans. […] Rational design is utilized to introduce mutations into human nucleoside kinase thymidine kinase 2 (TK2) to improve the affinity of the kinase for the top candidate probe. The sensitivity and specificity of the novel PET reporter probe/gene pair was then determined in vitro and in vivo using a murine cancer model.
(§1) Animal studies were approved and carried out according to specific guidelines. C57/BL6 mice were injected with the indicated probe and underwent micro-PET/CT analyses at 1- and 3-h post probe injection (Inveon, Siemens Medical Solutions USA Inc.; microCAT; Imtek Inc.). For tumor imaging studies, SCID mice were injected subcutaneously on day −7 in the right and left flanks with 1×10^6 L1210-PRG-expressing cells in 50% v/v phosphate-buffered saline and 50% v/v Matrigel™ (BD Biosciences). For imaging experiments, mice were kept warm and under gas anesthesia (2% v/v isoflurane) and were injected intravenously with 200 μCi of ^18F-labeled probes. A 3-h interval was allowed between probe administration and microPET/CT scanning Static microPET images were acquired for 600 s. Image data were evaluated in three-dimensional histograms and reconstructed with a zoom factor of 2.1 using three-dimensional ordered set expectation maximization (OSEM) with 2 iterations followed by MAP (maximum a posteriori) reconstruction with 18 iterations (beta=0.1). Images were analyzed using OsiriX Imaging Software Version 3.8.

[5] = Human whole-body PET/CT biodistribution of PET reporter probes; type: in vivo
Source text: All studies involving human volunteers were approved. A healthy person and a healthy volunteer were recruited for the L-^18F-FMAU biodistribution study. Each volunteer received a bolus intravenous injection of ˜56 MBq (1.5 mCi) sterile L-^18F-FMAU and had four consecutive whole-body (starting from just above the head to above the knees, 6 bed positions, 5-min scan at each bed position) PET scans (Biograph 64, Siemens), with the first scan starting shortly after intravenous injection of L-^18F-FMAU. A low dose CT scan was also obtained for attenuation correction. Volunteers urinated after all scans had been performed. The region of interest analysis was performed to measure mean standard uptake values of L-^18F-FMAU in major organs/tissues. To illustrate the biodistribution of ^18F-FHBG, unpublished scan from a previous study (see, e.g. Yaghoubi, S. S., et al. (2009) Nat. Clin. Pract. Oncol. 6, 53-58) was used.

[6] = tested on: L1210 tumors expressing WT TK2; experiment: microPET/CT of SCID mice bearing L1210-PRG tumors (WT TK2); type: in vivo; settings: 3 hrs post-injection, FIG. 10D
Source text: (§2) To compare TK2, TK2-N93D and HSV1-sr39tk in vivo, PRG-expressing L1210 cells were implanted subcutaneously in SCID mice that were then scanned with L-[^18F]FMAU (FIG. 10A) and [^18F]FHBG (FIG. 10C) on consecutive days. […] Signals obtained with sr39tk were slightly higher than those obtained with the human TK2-N93D PRG (the difference was not statistically significant). […] L-[^18F]FMAU accumulation in TK2-N93D transduced tumors was ˜20 times higher than the accumulation in tumors transduced with the control (eYFP only) vector. While this ratio is higher than the 6.67 ratio reported for WT TK2 as a PRG with D-[^18F]FEAU as the PRP (see, e.g. Ponomarev, V., et al. J Nucl Med 48:819-826, 2007), the HSV1-sr39tk/[^18F]FHBG combination still outperforms the TK2-N93D/L-[^18F]FMAU combination by ˜2-fold. […]
(§3) Animal studies were approved and carried out according to specific guidelines. […] Image data were evaluated in three-dimensional histograms and reconstructed with a zoom factor of 2.1 using three-dimensional ordered set expectation maximization (OSEM) with 2 iterations followed by MAP (maximum a posteriori) reconstruction with 18 iterations (beta=0.1). Images were analyzed using OsiriX Imaging Software Version 3.8.

[7] = tested on: L1210 tumors expressing TK2-N93D; experiment: microPET/CT of SCID mice bearing L1210-PRG tumors (TK2-N93D); type: in vivo; settings: 3 hrs post-injection, FIG. 10D
Source text: To compare TK2, TK2-N93D and HSV1-sr39tk in vivo, PRG-expressing L1210 cells were implanted subcutaneously in SCID mice that were then scanned with L-[^18F]FMAU (FIG. 10A) and [^18F]FHBG (FIG. 10C) on consecutive days. […] Signals obtained with sr39tk were slightly higher than those obtained with the human TK2-N93D PRG (the difference was not statistically significant). […] L-[^18F]FMAU accumulation in TK2-N93D transduced tumors was ˜20 times higher than the accumulation in tumors transduced with the control (eYFP only) vector. While this ratio is higher than the 6.67 ratio reported for WT TK2 as a PRG with D-[^18F]FEAU as the PRP (see, e.g. Ponomarev, V., et al. J Nucl Med 48:819-826, 2007), the HSV1-sr39tk/[^18F]FHBG combination still outperforms the TK2-N93D/L-[^18F]FMAU combination by ˜2-fold. The significance of the 2-fold difference for the sensitivity of the new TK2-N93D PRG can be further investigated in the animal models discussed below (see, e.g. Gerth, M. L., et al. Biochem Biophys Res Commun 354:802-807, 2007; Liu, L., et al. Nucleic Acids Res 37:4472-4481, 2009; Iyidogan, P., et al. Biochemistry 47:4711-4720, 2008; Lutz, S., et al. Chimia (Aarau) 63:737-744 2009).
as §1

[8] = tested on: L1210 tumors expressing HSV1-sr39tk; experiment: microPET/CT of SCID mice bearing L1210-PRG tumors (HSV1-sr39tk); type: in vivo
Source text: as §2
as §3, with “3.8. […]” for “3.8.”

[9] = target: T2, WT TK2 (Homo sapiens, UniProt O00142); experiment: Kinetic analyses of recombinant TK2 (NADH-dependent enzyme coupled assay), WT TK2; type: biochemical; settings: 37° C., 1 mM ATP
T2 construct: hexahistidine (N, cleaved yes); SUMO (N, cleaved yes); made in house; host or cells: Escherichia coli BL21 (DE3) C41, modified pET14b
T2 sequence (O00142 51-265): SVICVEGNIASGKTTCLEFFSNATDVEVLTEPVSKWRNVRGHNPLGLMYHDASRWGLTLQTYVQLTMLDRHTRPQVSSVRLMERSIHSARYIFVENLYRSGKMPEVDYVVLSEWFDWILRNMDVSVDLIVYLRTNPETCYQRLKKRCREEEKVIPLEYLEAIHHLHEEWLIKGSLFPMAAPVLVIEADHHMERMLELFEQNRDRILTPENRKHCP

[10] = target: T3, TK2-N93D/L109F (Homo sapiens, UniProt O00142, L109F/N93D); experiment: Kinetic analyses of recombinant TK2 (NADH-dependent enzyme coupled assay), TK2-N93D/L109F; type: biochemical; settings: 37° C., 1 mM ATP
T3 construct: hexahistidine (N, cleaved yes); SUMO (N, cleaved yes); made in house; host or cells: Escherichia coli BL21 (DE3) C41, modified pET14b
T3 sequence (O00142 51-265 N93D/L109F): T2 sequence (O00142 51-265) with N43D, L59F
Description: FIG. 34 provides a table that illustrates the kinetics of the phosphorylation of D and L-nucleosides by the TK2 mutants. Kinase assays were performed with recombinant protein with 200 μM of the listed substrate.

[11] = target: deoxycytidine kinase (dCK) (Homo sapiens, UniProt P27707); settings: cited from earlier work
[12] = target: T4, TK2-N93D (Homo sapiens, UniProt O00142, N93D); experiment: Kinetic analyses of recombinant TK2 (NADH-dependent enzyme coupled assay), TK2-N93D; settings: 37° C., 1 mM ATP
T4 sequence (O00142 51-265 N93D): T2 sequence (O00142 51-265) with N43D
Description: (§4) A NADH-dependent enzyme coupled assay (see, e.g. Agarwal, K. C., et al. (1978) Methods Enzymol. 51, 483-490) was used. Using a Cary UV spectrophotometer, measurements were made in triplicate at 37° C. in a buffer containing 100 mM Tris, pH 7.5, 100 mM KCl, 5 mM MgCl2, and 1 mM ATP. For data in which kobs is given, a single nucleoside concentration of 200 μM was used. For data in which both Km and kcat are given, the nucleoside concentration was varied between 15 and 500 μM. TK2 concentration in the cuvette was 400 nM. Data were fit to the Michaelis-Menten equation using SigmaPlot. […] Therefore, all of the kinetic data using the Michaelis-Menten equation without the Hill coefficient is presented.

[13] = target: T5, TK2-L109F (Homo sapiens, UniProt O00142, L109F); experiment: Kinetic analyses of recombinant TK2 (NADH-dependent enzyme coupled assay), TK2-L109F; settings: 37° C., 1 mM ATP
T5 sequence (O00142 51-265 L109F): T2 sequence (O00142 51-265) with L59F
Description: as §4

deoxycytidine kinase (dCK), sequence (P27707 whole entry): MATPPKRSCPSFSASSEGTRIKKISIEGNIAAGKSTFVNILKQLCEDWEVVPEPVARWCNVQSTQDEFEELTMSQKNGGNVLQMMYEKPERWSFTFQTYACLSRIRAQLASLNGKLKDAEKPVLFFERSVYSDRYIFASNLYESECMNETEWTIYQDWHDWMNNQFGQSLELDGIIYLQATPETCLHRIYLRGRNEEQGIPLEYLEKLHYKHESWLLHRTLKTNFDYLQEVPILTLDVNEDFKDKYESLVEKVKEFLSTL

SMILES: CCc1cn([C@@H]2O[C@H](CO)[C@@H](O)[C@@H]2F)c(=O)[nH]c1=O [D-[^18F]FEAU, 2′-deoxy-2′-^18F-5-ethyl-1-β-D-arabinofuranosyluracil]
ratio of accumulation, PRG versus control [1]: 6.67
activity of kinase towards nucleoside analog [2]: active towards L-FMAU, D-
biodistribution as a candidate PRP [3]: favorable biodistribution

SMILES: Nc1nc2c(ncn2CCC(CO)C[18F])c(=O)[nH]1 (stereo not drawn) [^18F-FHBG, 9-[4-[^18F]fluoro-3-(hydroxymethyl)butyl]guanine, reference compound]
accumulation in the liver ([4]; 3-h time point): neither probe showed any accumulation
accumulation in the gallbladder ([4]; 3 h after administration): 7.45±5.31 % injected dose/g
accumulation in the gallbladder, 18F-FHBG relative to L-18F-FMAU ([4]; 3 h after administration): 4 times
retention in the abdominal cavity, 18F-FHBG relative to L-18F-FMAU ([4]; 3 h after administration): three times higher
retention in the thoracic cavity ([4]; 3 h after administration): very low retention
signals in the GI tract ([4]; 3 h after administration): detected throughout the GI tract
abdominal background ([4]; mice, compared with [18F]FHBG): high abdominal background
tissues with relatively high signals ([5]; 2 h post-administration): relatively high signals were observed in liver, kidneys, gall bladder, bladder, and the GI tract
tracer background within abdomen and pelvis ([5]; whole-body PET/CT, human): high abdominal background
[18F]FHBG accumulation in tumors [6]: Neither WT TK2 nor TK2-N93D expressing tumors accumulated detectable amounts
[18F]FHBG accumulation in tumors [7]: Neither WT TK2 nor TK2-N93D expressing tumors accumulated detectable amounts
probe uptake in L1210 tumors ([8]; 18F-FHBG, 3 h post-injection): 24.1±6.2 % injected dose/g
HSV1-sr39tk/[18F]FHBG combination outperforms TK2-N93D/L-[18F]FMAU combination ([8]; tumor to control ratio): ~2 fold

kcat (L-FMAU)/kcat (D-dT) ratio [9]: 3.7
increase of kcat compared with TK2 [10]: 100%
kcat (L-FMAU)/kcat (D-dT) ratio [10]: 14.9
kcat (L-FMAU)/kcat (D-dT) ratio, higher than that for TK2 [10]: 4 fold
kcat (L-FMAU)/kcat (D-dT) ratio, higher than that for TK2-N93D [10]: ~40%
decrease of kcat relative to WT TK2 [12]: 32%
increase of kcat/Km compared with WT TK2 [12]: 77%
kcat (L-FMAU)/kcat (D-dT) ratio compared with wild type [12]: nearly triples
kcat (L-FMAU)/kcat (D-dT) ratio [13]: 2.4
SMILES: Cc1cn([C@H]2O[C@@H](CO)[C@H](O)[C@H]2F)c(=O)[nH]c1=O [L-FMAU]
activity of kinase towards nucleoside analog [2]: substrate for human TK2; also recorded: active towards L-FMAU, D-
activity of kinase towards nucleoside analog [11]: Very low activity with L-FMAU
